From patent publication US7384959B2, “Treatment of convulsive states” (priority 1999, dated 2008)
Marks after values point to notes of the source that are not given here.

Columns and labels:
rat [1] = assay: Irwin Observation Test in the rat, subcutaneous route; type: in vivo; parameters: key to Mydriasis / Hyperthermia / Excitation: +=slight; ++=moderate
Description: (§1) The following Tables report the results of the Irwin, PTZ and barbital interaction (sleep induction) tests. Description of these tests may be found in Psychopharmacologica, 13:222-257 (1968), Krall et al, Epilepsia 19:409-428 (1978), and Simon et al, J. Pharmacol, Paris 13:241-252 (1982). See also Roux et al, Phoenix international Pharmacology Reports Nos. D30.2061/2 and D99.021/2.
In Table 1, the following apply: +=slight; ++=moderate
(X/N) indicates the number of rats showing the symptoms.
Observations were performed at 15, 30, 60, 120, 180 minutes and 24 hours after administration.
Hyperthermia and mydriasis were evaluated by comparison of the mean scores obtained in treated and control animals.

[2] = target: cytochrome P450 sub-type 2E1 (Homo sapiens, UniProt P05181); assay: effect on cytochrome P450 activity; type: in vitro ADME
Experimental: (§2) At very high doses, some inhibition of cytochrome P450 sub-types C8/9, 2C18/19 and 2D6 was found, but the concentrations required to inhibit enzyme activities (100 μM) were much greater than the maximum concentrations likely to be found in vivo and are therefore not likely to be clinically relevant.

[3] = target: cytochrome P450 sub-type 2D6 (Homo sapiens, UniProt P10635); assay: effect on cytochrome P450 activity; type: in vitro ADME; details: some inhibition at very high doses
Experimental: as §2

[4] = target: cytochrome P450 sub-type 3A4 (Homo sapiens, UniProt P08684); assay: effect on cytochrome P450 activity; type: in vitro ADME
Experimental: as §2

[5] = tested on: cytochrome P450 sub-type C8/9; assay: effect on cytochrome P450 activity; type: in vitro ADME; details: some inhibition at very high doses
Experimental: as §2

[6] = tested on: attention-deficit hyperactivity disorder (ADHD); details: Patrick et al 1987; cited from earlier work
rat [7] = assay: barbital interaction (sleep induction) test; type: in vivo; details: for NUMBER OF RATS SLEEPING: 10 rats per group; for SLEEP DURATION mean ± s.e.m.: maximum 6 hours after barbital injection
Description: as §1
In Table 3, the following apply: Student's t Test: NS=Not Significant; *=p<0.05; **=p<0.01; ***=<0.001 Fisher's Exact Test: (number of rats sleeping) No indication=Not Significant; +=p<0.05; ++=p<0.01; +++=p<0.001 • (#): maximum=6 hours after barbital injection (taken 50 minutes after barbital injection).

Sequence of cytochrome P450 sub-type 3A4 (P08684 whole entry): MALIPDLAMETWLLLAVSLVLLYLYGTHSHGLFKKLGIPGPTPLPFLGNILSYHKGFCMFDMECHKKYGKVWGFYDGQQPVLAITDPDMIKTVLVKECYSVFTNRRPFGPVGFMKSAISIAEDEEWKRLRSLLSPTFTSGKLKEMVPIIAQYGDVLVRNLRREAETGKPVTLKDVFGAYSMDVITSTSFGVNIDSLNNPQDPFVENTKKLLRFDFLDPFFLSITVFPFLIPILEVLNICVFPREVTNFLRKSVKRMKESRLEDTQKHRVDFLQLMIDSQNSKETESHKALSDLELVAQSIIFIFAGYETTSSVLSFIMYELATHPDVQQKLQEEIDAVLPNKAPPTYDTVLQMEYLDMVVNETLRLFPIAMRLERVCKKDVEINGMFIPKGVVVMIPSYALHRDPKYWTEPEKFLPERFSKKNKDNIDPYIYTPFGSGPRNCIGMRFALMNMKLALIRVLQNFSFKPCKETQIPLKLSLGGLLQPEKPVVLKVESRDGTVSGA
Sequence of cytochrome P450 sub-type 2E1 (P05181 whole entry): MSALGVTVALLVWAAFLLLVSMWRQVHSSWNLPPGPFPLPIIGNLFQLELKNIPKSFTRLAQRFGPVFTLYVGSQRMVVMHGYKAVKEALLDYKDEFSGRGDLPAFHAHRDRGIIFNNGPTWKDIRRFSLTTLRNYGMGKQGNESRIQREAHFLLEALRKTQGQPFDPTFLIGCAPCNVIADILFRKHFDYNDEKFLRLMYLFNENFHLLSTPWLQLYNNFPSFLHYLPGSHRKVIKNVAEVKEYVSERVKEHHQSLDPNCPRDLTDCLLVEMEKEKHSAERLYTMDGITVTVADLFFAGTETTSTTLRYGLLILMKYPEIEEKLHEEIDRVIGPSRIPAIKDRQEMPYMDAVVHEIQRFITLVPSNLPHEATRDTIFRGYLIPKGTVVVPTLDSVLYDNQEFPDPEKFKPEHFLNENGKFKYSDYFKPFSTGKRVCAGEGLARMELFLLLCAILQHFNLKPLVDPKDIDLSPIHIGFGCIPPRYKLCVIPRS
Sequence of cytochrome P450 sub-type 2D6 (P10635 whole entry): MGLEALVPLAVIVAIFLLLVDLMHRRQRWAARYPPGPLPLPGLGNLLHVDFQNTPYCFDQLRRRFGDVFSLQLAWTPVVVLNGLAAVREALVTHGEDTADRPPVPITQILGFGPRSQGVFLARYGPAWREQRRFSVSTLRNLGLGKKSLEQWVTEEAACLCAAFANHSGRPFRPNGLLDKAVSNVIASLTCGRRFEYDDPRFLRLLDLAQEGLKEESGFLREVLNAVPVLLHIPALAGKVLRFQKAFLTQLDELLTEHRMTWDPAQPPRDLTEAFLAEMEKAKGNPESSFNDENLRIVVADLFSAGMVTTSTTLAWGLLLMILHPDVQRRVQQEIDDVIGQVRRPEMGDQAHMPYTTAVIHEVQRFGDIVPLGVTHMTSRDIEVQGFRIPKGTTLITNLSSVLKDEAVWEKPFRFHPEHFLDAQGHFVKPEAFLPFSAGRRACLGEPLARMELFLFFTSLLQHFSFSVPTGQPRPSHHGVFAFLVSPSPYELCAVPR

**Q.** Which “Irwin test observation (cell wraps: No change)” value (rat [1]; 2 mg/kg s.c., rat) does the source give for COC(=O)[C@@H](c1ccccc1)[C@@H]1CCCCN1 [l-MPH, l-threo-Methylphenidate] here?
**A.** No

**Q.** What about the Mydriasis (rat [1]; 4 mg/kg s.c., at 30′) of the same molecule?
**A.** Mydriasis +

**Q.** And the Excitation (rat [1]; 8 mg/kg s.c., at 30′)?
**A.** Excitation +

**Q.** What about the “Excitation, number of rats showing the symptoms (X/N)” value (from here on “Excitation, number”) (rat [1]; 8 mg/kg s.c., at 30′) of the same molecule?
**A.** (2/3) at 30′

**Q.** And the Mydriasis (rat [1]; 8 mg/kg s.c., at 30′)?
**A.** Mydriasis +

**Q.** What about the “Stereotypies (sniffing), number of rats showing the symptoms (X/N)” value (“Stereotypies (sniffing), number” for short) (rat [1]; 8 mg/kg s.c., at 30′) of the same molecule?
**A.** (1/3) at 30′

**Q.** And the “Stereotypies (sniffing), number” value (rat [1]; 16 mg/kg s.c., 30′ → 120′)?
**A.** (3/3) 30′ → 120′

**Q.** And the Excitation (rat [1]; 16 mg/kg s.c., 60′ → 120′)?
**A.** Excitation +

**Q.** What about the “Excitation, number” value (rat [1]; 16 mg/kg s.c., 60′ → 120′) of the same molecule?
**A.** (2/3) 60′ → 120′

**Q.** What about the “Stereotypies (head movements), number of rats showing the symptoms (X/N)” value (rat [1]; 16 mg/kg s.c., 60′ → 120′) of the same molecule?
**A.** (1/3) 60′ → 120′

**Q.** And the Mydriasis (rat [1]; 16 mg/kg s.c., at 30′)?
**A.** Mydriasis + at 30′

**Q.** What about the Excitation (rat [1]; 32 mg/kg s.c., 15′ → 30′) of the same molecule?
**A.** Excitation +

**Q.** What about the “Excitation, number” value (rat [1]; 32 mg/kg s.c., 15′ → 30′) of the same molecule?
**A.** (3/3) 15′ → 30′

**Q.** What about the “↑ Reactivity to touch, number of rats showing the symptoms (X/N)” value (rat [1]; 32 mg/kg s.c., 15′ → 30′) of the same molecule?
**A.** (3/3) 15′ → 30′

**Q.** What about the Mydriasis (rat [1]; 32 mg/kg s.c., 15′ → 120′) of the same molecule?
**A.** (++ 15′ →

**Q.** And the “Stereotypies (sniffing), number” value (rat [1]; 32 mg/kg s.c., 15′ → 120′)?
**A.** (3/3)

**Q.** What about the “↑ Fear, number of rats showing the symptoms (X/N)” value (rat [1]; 32 mg/kg s.c., 15′ → 120′) of the same molecule?
**A.** (3/3)

**Q.** What about the Hyperthermia (rat [1]; 32 mg/kg s.c., at 30′ and 120′) of the same molecule?
**A.** Hyperthermia +

**Q.** And the Mydriasis (rat [1]; 32 mg/kg s.c., at 180′)?
**A.** (+ at 180′)

**Q.** And the “Irwin test observations at higher doses” value (rat [1]; 64, 128 and 256 mg/kg, s.c., rat)?
**A.** all rats exhibited further characteristics including sedation, fore-paw treading, stereotypes (head movements) and decreased muscle tone

**Q.** What about the “signs of stimulation in the Irwin profile” value (rat [1]; at doses having anti-convulsant effects) of the same molecule?
**A.** Slight signs of stimulation were noted

**Q.** And the “sedation in the Irwin profile” value (rat [1]; at the doses used in the PTZ test)?
**A.** sedation was not noted

**Q.** What about the “effect on activity of cytochrome P450 sub-type 2E1” value [2] of the same molecule?
**A.** little or no effect

**Q.** What about the “concentration required to inhibit enzyme activity, cytochrome P450 sub-type 2D6” value [3] of the same molecule?
**A.** 100 µM

**Q.** What about the “effect on activity of cytochrome P450 sub-type 3A4” value [4] of the same molecule?
**A.** little or no effect

**Q.** What about the “concentration required to inhibit enzyme activity, cytochrome P450 sub-type C8/9” value [5] of the same molecule?
**A.** 100 µM

**Q.** And the “pharmacological action in the treatment of ADHD” value [6]?
**A.** no action on the part of the l-enantiomer (l-MPH) has been detected

**Q.** And the “SLEEP DURATION % change from control” value (rat [7]; 0.5 mg/kg s.c. −30 min)?
**A.** +3%

**Q.** And the “NUMBER OF RATS SLEEPING” value (rat [7]; 0.5 mg/kg s.c. −30 min)?
**A.** 9

**Q.** And the “SLEEP DURATION mean ± s.e.m.” value (rat [7]; 0.5 mg/kg s.c. −30 min)?
**A.** 63.8 ± 18.5 NS min

**Q.** What about the “SLEEP DURATION % change from control” value (rat [7]; 2 mg/kg s.c. −30 min) of the same molecule?
**A.** −85%

**Q.** What about the “NUMBER OF RATS SLEEPING” value (rat [7]; 2 mg/kg s.c. −30 min) of the same molecule?
**A.** 4 +

**Q.** And the “SLEEP DURATION mean ± s.e.m.” value (rat [7]; 2 mg/kg s.c. −30 min)?
**A.** 9.5 ± 6.4** min

**Q.** And the “SLEEP DURATION % change from control” value (rat [7]; 4 mg/kg s.c. −30 min)?
**A.** −93%

**Q.** And the “NUMBER OF RATS SLEEPING” value (rat [7]; 4 mg/kg s.c. −30 min)?
**A.** 6

**Q.** What about the “SLEEP DURATION mean ± s.e.m.” value (rat [7]; 4 mg/kg s.c. −30 min) of the same molecule?
**A.** 4.3 ± 2.3*** min

**Q.** And the “SLEEP DURATION % change from control” value (rat [7]; 8 mg/kg s.c. −30 min)?
**A.** −79%

**Q.** And the “NUMBER OF RATS SLEEPING” value (rat [7]; 8 mg/kg s.c. −30 min)?
**A.** 1 +++

**Q.** And the “SLEEP DURATION mean ± s.e.m.” value (rat [7]; 8 mg/kg s.c. −30 min)?
**A.** 13.3 ± 13.3 min

**Q.** What about the “effect on barbital-induced sleep” value (rat [7]; rat, in vivo) of the same molecule?
**A.** antagonise barbital-induced sleep
